Laboratory results reported in PMC5895059, “Scaffold hopping from (5-hydroxymethyl) isophthalates to multisubstituted pyrimidines diminishes binding affinity to the C1 domain of protein kinase C” (PLoS ONE, 2018).
Where “and” joins values, the source holds several entries; their conditions need not be identical. Equal entries are not always repeated.

Target: PKCα (Homo sapiens, UniProt P17252)
Experiment: [3H]PDBu displacement, 96-well plate filtration binding assay
Conditions: for Displacement assay raw data (CCPM): single replicate wells; for Residual [^3H]PDBu binding to PKCα (% of control): 20 μM compound concentration, mean + SEM, n = 2–8; for Displacement of [^3H]PDBu from PKCα (in words): concentration range of 0.2–30 μM

Row | Compound | Displacement assay raw data (CCPM) (0,2 µM test substance) | Displacement assay raw data (CCPM) (1 µM test substance) | Displacement assay raw data (CCPM) (4 µM test substance) | Displacement assay raw data (CCPM) (10 µM test substance) | Residual [^3H]PDBu binding to PKCα (% of control) | Displacement assay raw data (CCPM) (20 µM test substance) | Displacement assay raw data (CCPM) (30 µM test substance) | Displacement of [^3H]PDBu from PKCα (in words)
1 | CCCCCCCOC(=O)c1cc(C(=O)OCCCCCCC)nc(CO)n1 [Compound 1a, Diheptyl 2-(hydroxymethyl)pyrimidine-4,6-dicarboxylate] | 5564 CCPM and 8472 CCPM and 8055 CCPM and 9131 CCPM and 5172 CCPM and 4908 CCPM | 5111 CCPM and 8836 CCPM and 8480 CCPM and 8743 CCPM and 5670 CCPM and 5038 CCPM | 5090 CCPM and 8165 CCPM and 8077 CCPM and 7980 CCPM and 5413 CCPM and 5275 CCPM | 5789 CCPM and 8577 CCPM and 7653 CCPM and 8759 CCPM and 5036 CCPM and 5595 CCPM | 94.1 ± 2.4 % of control | 4889 CCPM and 7960 CCPM and 7787 CCPM and 7605 CCPM and 5228 CCPM and 4729 CCPM | 4835 CCPM and 7857 CCPM and 7587 CCPM and 5013 CCPM and 5317 CCPM | 
2 | CCCCCCCCOC(=O)c1cc(C(=O)OCCCCCCCC)nc(CO)n1 [Compound 1b, Dioctyl 2-(hydroxymethyl)pyrimidine-4,6-dicarboxylate] | 7480 CCPM and 1215 CCPM and 1126 CCPM and 1107 CCPM and 7956 CCPM and 7520 CCPM | 7638 CCPM and 1213 CCPM and 1392 CCPM and 1115 CCPM and 7562 CCPM and 7593 CCPM | 7531 CCPM and 1201 CCPM and 1408 CCPM and 1101 CCPM and 7673 CCPM and 7303 CCPM | 7793 CCPM and 1222 CCPM and 1214 CCPM and 1251 CCPM and 7474 CCPM and 6957 CCPM | 104.8 ± 5.3 % of control | 8435 CCPM and 1194 CCPM and 1172 CCPM and 1054 CCPM and 8891 CCPM and 9450 CCPM | 6677 CCPM and 1407 CCPM and 1081 CCPM and 1070 CCPM and 6691 CCPM and 6936 CCPM | 
3 | CCCCCCCCCCCOC(=O)c1cc(C(=O)OCCCCCCCCCCC)nc(CO)n1 [Compound 1c, Diundecyl 2-(hydroxymethyl)pyrimidine-4,6-dicarboxylate] | 8135 CCPM and 9009 CCPM and 9090 CCPM | 7374 CCPM and 8410 CCPM and 8950 CCPM | 8779 CCPM and 7927 CCPM and 8172 CCPM | 7968 CCPM and 8364 CCPM and 8092 CCPM | 103.7 ± 5.3 % of control | 7670 CCPM and 9322 CCPM and 8225 CCPM | 7089 CCPM and 8399 CCPM and 9539 CCPM | 
4 | CCCCC(CC)OC(=O)c1cc(C(=O)OCC)nc(CO)n1 (stereo not drawn) [Compound 1d, 4-ethyl 6-(heptan-3-yl) 2-(hydroxymethyl)pyrimidine-4,6-dicarboxylate] | 5785 CCPM and 11839 CCPM and 10949 CCPM and 11567 CCPM and 6093 CCPM and 6313 CCPM | 5593 CCPM and 11705 CCPM and 12203 CCPM and 11600 CCPM and 5961 CCPM | 5222 CCPM and 11573 CCPM and 11709 CCPM and 11091 CCPM and 5210 CCPM and 6475 CCPM | 5570 CCPM and 12001 CCPM and 12205 CCPM and 11408 CCPM and 5899 CCPM and 5461 CCPM | 98.2 ± 1.6 % of control | 5518 CCPM and 11664 CCPM and 11365 CCPM and 11482 CCPM and 5575 CCPM and 5277 CCPM | 5500 CCPM and 12337 CCPM and 11581 CCPM and 11144 CCPM and 5029 CCPM and 5100 CCPM | 
5 | CCCCC(CC)OC(=O)c1cc(C(=O)OC(CC)CCCC)nc(CO)n1 (stereo not drawn) [Compound 1e, Di(heptan-3-yl) 2-(hydroxymethyl)pyrimidine-4,6-dicarboxylate] | 5837 CCPM and 9796 CCPM and 9740 CCPM and 9577 CCPM and 6148 CCPM and 6500 CCPM | 5874 CCPM and 9629 CCPM and 9242 CCPM and 9347 CCPM and 6081 CCPM and 6166 CCPM | 6376 CCPM and 9023 CCPM and 9333 CCPM and 9667 CCPM and 6505 CCPM and 6158 CCPM | 5476 CCPM and 8845 CCPM and 9519 CCPM and 8799 CCPM and 5785 CCPM and 5946 CCPM | 86.7 ± 7.7 % of control | 5873 CCPM and 9742 CCPM and 7884 CCPM and 7727 CCPM and 6291 CCPM and 6049 CCPM | 5476 CCPM and 8529 CCPM and 8458 CCPM and 9304 CCPM and 5635 CCPM and 5882 CCPM | 
6 | CCCCCC(CC)OC(=O)c1cc(C(=O)OC(CC)CCCCC)nc(CO)n1 (stereo not drawn) [Compound 1f, Di(octan-3-yl) 2-(hydroxymethyl)pyrimidine-4,6-dicarboxylate] | 8395 CCPM and 7761 CCPM and 8223 CCPM | 8430 CCPM and 8004 CCPM and 8035 CCPM | 8187 CCPM and 8110 CCPM and 8243 CCPM | 6268 CCPM and 7306 CCPM and 7650 CCPM | 88.3 ± 2.7 % of control | 7244 CCPM and 7065 CCPM and 7340 CCPM | 7174 CCPM and 7070 CCPM and 7370 CCPM | 
7 | O=C(OCc1cccc(C(F)(F)F)c1)c1cc(C(=O)OCc2cccc(C(F)(F)F)c2)nc(CO)n1 [Compound 1g, Bis[3-(trifluoromethyl)benzyl] 2-(hydroxymethyl)pyrimidine-4,6-dicarboxylate] | 5983 CCPM and 11409 CCPM and 12180 CCPM and 12791 CCPM and 7834 CCPM and 6792 CCPM | 5197 CCPM and 12142 CCPM and 12212 CCPM and 11135 CCPM and 5159 CCPM and 5208 CCPM | 7023 CCPM and 11774 CCPM and 11597 CCPM and 12149 CCPM and 8091 CCPM and 7399 CCPM | 6399 CCPM and 11639 CCPM and 11927 CCPM and 11310 CCPM and 6008 CCPM and 6638 CCPM | 111.8 ± 6.5 % of control | 7300 CCPM and 11874 CCPM and 12244 CCPM and 12079 CCPM and 8018 CCPM and 7727 CCPM | 6005 CCPM and 11016 CCPM and 11803 CCPM and 12038 CCPM and 5730 CCPM and 6258 CCPM | could not displace
8 | CCOC(=O)c1cc(C(=O)OCC)nc(CO)n1 [Compound 1h, Diethyl 2-(hydroxymethyl)pyrimidine-4,6-dicarboxylate] | 6323 CCPM and 10230 CCPM and 10470 CCPM and 11100 CCPM and 5792 CCPM and 6513 CCPM | 5802 CCPM and 9840 CCPM and 9837 CCPM and 10294 CCPM and 5441 CCPM and 6766 CCPM | 5407 CCPM and 9299 CCPM and 9482 CCPM and 9928 CCPM and 5323 CCPM and 5809 CCPM | 6198 CCPM and 9686 CCPM and 9902 CCPM and 9890 CCPM and 6355 CCPM and 6092 CCPM | 116.3 ± 5.9 % of control | 6120 CCPM and 9294 CCPM and 10766 CCPM and 9965 CCPM and 5572 CCPM and 5876 CCPM | 5421 CCPM and 9318 CCPM and 10014 CCPM and 8246 CCPM and 4984 CCPM and 6346 CCPM | 
9 | CCCCCCOC(=O)c1nc(CO)nc(OCCCCCC)c1C [Compound 2a, Hexyl 6-(hexyloxy)-2-(hydroxymethyl)-5-methylpyrimidine-4-carboxylate] | 7949 CCPM and 9699 CCPM and 8544 CCPM and 12898 CCPM and 11646 CCPM and 12786 CCPM | 7626 CCPM and 8685 CCPM and 9639 CCPM and 11993 CCPM and 12245 CCPM and 12903 CCPM | 7496 CCPM and 8524 CCPM and 9257 CCPM and 11421 CCPM and 11194 CCPM and 11877 CCPM | 7467 CCPM and 7915 CCPM and 7828 CCPM and 11547 CCPM and 11263 CCPM and 11635 CCPM | 85.3 ± 7.4 % of control | 6283 CCPM and 8361 CCPM and 8257 CCPM and 10077 CCPM and 11544 CCPM and 10260 CCPM | 6598 CCPM and 7105 CCPM and 7428 CCPM and 10040 CCPM and 10575 CCPM and 9972 CCPM | strongest concentration dependence
10 | CCCCCCCOC(=O)c1nc(CO)nc(OCCCCCCC)c1C [Compound 2b, Heptyl 6-(heptyloxy)-2-(hydroxymethyl)-5-methylpyrimidine-4-carboxylate] | 13052 CCPM and 11682 CCPM and 11827 CCPM and 17977 CCPM and 18315 CCPM and 17029 CCPM | 11258 CCPM and 11582 CCPM and 12305 CCPM and 17512 CCPM and 18998 CCPM and 18500 CCPM | 10048 CCPM and 11019 CCPM and 11674 CCPM and 17585 CCPM and 17180 CCPM and 19863 CCPM | 10753 CCPM and 10221 CCPM and 10149 CCPM and 14691 CCPM and 16431 CCPM and 16220 CCPM | 88.5 ± 5.7 % of control | 9620 CCPM and 9492 CCPM and 9656 CCPM and 14771 CCPM and 14660 CCPM and 15872 CCPM | 9760 CCPM and 10346 CCPM and 10712 CCPM and 16581 CCPM and 14486 CCPM and 14880 CCPM | 
